# Results: ChEMBL document CHEMBL5356991, “Naphthyl bearing 1,3,4-thiadiazoleacetamides targeting the parasitic folate pathway as anti-infectious agents: in silico, synthesis, and biological approach” (RSC Med Chem, 2023)
# Assays:
# [1] = Hemolytic activity in human RBC assessed as hemolysis at 12.5 uM incubated for 1 hr by spectrophotometric analysis relative to control; format: toxicity, cell-based, Erythrocyte; conditions: human red blood cells (erythrocytes), read-out: Activity
# Plasmodium falciparum [2] = experiment: Antimalarial activity against chloroquine-resistant Plasmodium falciparum W2 assessed as parasite growth inhibition incubated for 72 hrs by Malstat reagent based LDH assay; format: functional, organism-based; conditions: W2, 72 h
# Plasmodium falciparum [3] = experiment: Antimalarial activity against chloroquine-sensitive Plasmodium falciparum NF54 assessed as parasite growth inhibition incubated for 72 hrs by Malstat reagent based LDH assay; format: functional, organism-based; conditions: NF54, 72 h
# Leishmania donovani = experiment: Antileishmanial activity against promastigote stage of Leishmania donovani assessed as parasite growth inhibition incubated for 24 hrs by MTT assay; format: functional, organism-based
# [4] = Cytotoxicity against human HEK293 cells assessed as cell growth at 50 uM incubated for 48 hrs by MTT assay relative to control; format: toxicity, cell-based; conditions: read-out: Activity
# [5] = Cytotoxicity against human HEK293 cells incubated for 48 hrs by MTT assay; format: toxicity, cell-based
# [6] = Safety index, ratio of IC50 for antimalarial activity against chloroquine-sensitive Plasmodium falciparum NF54 to IC50 for cytotoxicity against human HEK293 cells; format: toxicity, cell-based; conditions: HEK293 cells versus Plasmodium falciparum NF54, read-out: Ratio IC50
# Erythrocyte [7] = experiment: Hemolytic activity in human RBC assessed as hemolysis at 200 uM incubated for 1 hr by spectrophotometric analysis; format: toxicity, cell-based
# [8] = Selectivity index, ratio of IC50 for cytotoxicity against African green monkey Vero cells to IC50 for inhibition of bovine liver DHFR
# Dihydrofolate reductase = biological target: T1, Dihydrofolate reductase (Bos taurus, UniProt P00376); experiment: Inhibition of bovine liver DHFR incubated for 12 mins in presence of NADPH
# T1 sequence (P00376 whole entry): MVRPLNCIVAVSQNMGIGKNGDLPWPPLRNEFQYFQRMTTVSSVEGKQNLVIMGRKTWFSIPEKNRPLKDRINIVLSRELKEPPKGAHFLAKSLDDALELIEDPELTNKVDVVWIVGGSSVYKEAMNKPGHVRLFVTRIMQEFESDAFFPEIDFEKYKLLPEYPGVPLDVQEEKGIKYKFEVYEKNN
# Vero = experiment: Cytotoxicity against African green monkey Vero cells upto 1000 uM; format: toxicity, cell-based; conditions: chlorocebus sabaeus
# Plasmodium falciparum [9] = experiment: Resistance index, ratio of IC50 for antimalarial activity against chloroquine-resistant Plasmodium falciparum W2 to IC50 for antimalarial activity against chloroquine-sensitive Plasmodium falciparum NF54; format: functional
# Erythrocyte [10] = experiment: Hemolytic activity in human RBC assessed as hemolysis at 12.5 to 200 uM incubated for 1 hr by spectrophotometric analysis; format: toxicity, cell-based; conditions: dose 12.5-200 µM
smiles,measurement,setting,value
CN1CCN(CC(=O)Nc2nnc(COc3ccc4ccccc4c3)s2)CC1,"hemolysis at 1 h, 12.5 µM",[1],< 10%
same,IC50,Plasmodium falciparum [2],> 10 µM
same,IC50,Plasmodium falciparum [3],7.83 µM
same,IC50,Leishmania donovani,7.09 µM
same,"viability at 48 h, 50 µM",[4],42.8%
same,IC50 at 48 h,[5],69.2 µM
same,selectivity ratio,[6],8.85
O=C(CN1CCN(c2cc(N3CCOCC3)ncn2)CC1)Nc1nnc(COc2ccc3ccccc3c2)s1,"hemolysis at 1 h, 12.5 µM",[1],< 10%
same,IC50,Plasmodium falciparum [2],> 10 µM
same,IC50,Plasmodium falciparum [3],61.3 µM
same,IC50,Leishmania donovani,6.61 µM
same,"viability at 48 h, 50 µM",[4],87.4%
same,selectivity ratio,[6],0.82
C=C[C@H]1CN2CC[C@H]1C[C@H]2[C@H](O)c1ccnc2ccc(OC)cc12 [QUININE],IC50,Plasmodium falciparum [3],0.108 µM
CCCCCCCCCCCCCCCCOP(=O)([O-])OCC[N+](C)(C)C [MILTEFOSINE],IC50,Leishmania donovani,0.19 µM
O=C(CN1CCN(C(c2ccccc2)c2ccccc2)CC1)Nc1nnc(COc2ccc3ccccc3c2)s1,Activity,Erythrocyte [7],Toxic
same,"hemolysis at 1 h, 12.5 µM",[1],< 10%
same,Ratio IC50,[8],535.245
same,IC50,Plasmodium falciparum [2],> 10 µM
same,IC50,Plasmodium falciparum [3],0.94 µM
same,IC50,Leishmania donovani,3.55 µM
same,"viability at 48 h, 50 µM",[4],94.4%
same,selectivity ratio,[6],53.2
same,IC50,Dihydrofolate reductase,1.87 µM
same,Activity,Vero,Non-Toxic
CCOC(=O)c1cnc2ccccc2c1N1CCN(CC(=O)Nc2nnc(COc3ccc4ccccc4c3)s2)CC1,"hemolysis at 1 h, 12.5 µM",[1],< 10%
same,IC50,Plasmodium falciparum [2],> 10 µM
same,IC50,Plasmodium falciparum [3],28.9 µM
same,IC50,Leishmania donovani,5.32 µM
same,"viability at 48 h, 50 µM",[4],59.8%
same,selectivity ratio,[6],1.73
O=C(CN1CCN(c2ccnc3cc(Cl)ccc23)CC1)Nc1nnc(COc2ccc3ccccc3c2)s1,Activity,Erythrocyte [7],Toxic
same,"hemolysis at 1 h, 12.5 µM",[1],< 10%
same,Ratio IC50,[8],340.518
same,IC50,Plasmodium falciparum [2],3.92 µM
same,IC50,Plasmodium falciparum [3],3.93 µM
same,IC50,Leishmania donovani,7.2 µM
same,Ratio IC50,Plasmodium falciparum [9],0.99
same,"viability at 48 h, 50 µM",[4],43.3%
same,IC50 at 48 h,[5],70.4 µM
same,selectivity ratio,[6],9.44
same,IC50,Dihydrofolate reductase,2.94 µM
same,Activity,Vero,Non-Toxic
O=C(CN1CCCCC1)Nc1nnc(COc2ccc3ccccc3c2)s1,Activity,Erythrocyte [7],Toxic
same,"hemolysis at 1 h, 12.5 µM",[1],< 10%
same,IC50,Plasmodium falciparum [2],> 10 µM
same,IC50,Plasmodium falciparum [3],21.5 µM
same,IC50,Leishmania donovani,6.71 µM
same,"viability at 48 h, 50 µM",[4],86.9%
same,selectivity ratio,[6],2.33
O=C(CN1CCOCC1)Nc1nnc(COc2ccc3ccccc3c2)s1,"hemolysis at 1 h, 12.5 µM",[1],< 10%
same,IC50,Plasmodium falciparum [2],> 10 µM
same,IC50,Plasmodium falciparum [3],10.7 µM
same,IC50,Leishmania donovani,5.94 µM
same,"viability at 48 h, 50 µM",[4],70%
same,selectivity ratio,[6],6.54
Cc1ccc(N2CCN(CC(=O)Nc3nnc(COc4ccc5ccccc5c4)s3)CC2)cc1,"hemolysis at 1 h, 12.5 µM",[1],< 10%
same,IC50,Plasmodium falciparum [2],> 10 µM
same,IC50,Plasmodium falciparum [3],63.7 µM
same,IC50,Leishmania donovani,6.19 µM
same,"viability at 48 h, 50 µM",[4],66.4%
same,selectivity ratio,[6],0.79
O=C(CN1CCN(c2ccccc2O)CC1)Nc1nnc(COc2ccc3ccccc3c2)s1,Activity,Erythrocyte [7],Toxic
same,"hemolysis at 1 h, 12.5 µM",[1],< 10%
same,Ratio IC50,[8],400.881
same,IC50,Plasmodium falciparum [2],> 10 µM
same,IC50,Plasmodium falciparum [3],3.47 µM
same,IC50,Leishmania donovani,4.34 µM
same,"viability at 48 h, 50 µM",[4],92.9%
same,selectivity ratio,[6],14.4
same,IC50,Dihydrofolate reductase,2.5 µM
same,Activity,Vero,Non-Toxic
COc1ccc(N2CCN(CC(=O)Nc3nnc(COc4ccc5ccccc5c4)s3)CC2)cc1,"hemolysis at 1 h, 12.5 µM",[1],< 10%
same,IC50,Plasmodium falciparum [2],> 10 µM
same,IC50,Plasmodium falciparum [3],> 200 µM
same,IC50,Leishmania donovani,5.53 µM
same,"viability at 48 h, 50 µM",[4],58%
same,selectivity ratio,[6],0.25
CCN(CC)CCCC(C)Nc1ccnc2cc(Cl)ccc12 (stereo unspecified) [CHLOROQUINE],Activity,Erythrocyte [10],Toxic
same,"viability at 48 h, 50 µM",[4],58.5%
same,IC50 at 48 h,[5],17.2 µM
